This is an account of results in US20240101566A1, “TRICYCLIC UBIQUITIN SPECIFIC PROTEASE 1 INHIBITOR AND USE THEREOF” (SHANDONG XUANZHU PHARMA CO., LTD., priority 2021, published 2024).

Structures are written as SMILES.

Series [1] addresses Recombinant Human His6-USP1/His6-UAF1 Complex Protein (Homo sapiens (Human), UniProt O94782). The series can be described thus: In-vitro enzymatic activity on USP1, first experimental method (Ub-Rho substrate, 15 min incubation). In kind it is biochemical. Conditions: incubation at room temperature 15 minutes, read-out: Inhibitory activities on USP-1, IC50. As to the method: Experimental Example 1 In-vitro Enzymatic Activities of Compounds of the Present Disclosure
First Experimental Method:
1) The compounds of the present disclosure were prepared to 10 mM with DMSO, and used as test stock solutions.
2) The stock solutions of the compounds of the present disclosure were diluted in a 4-fold gradient for 10 concentrations, with a maximum concentration of 10 mM.
3) The diluted compounds of the present disclosure were respectively transferred to 384-well plates (diluted by 1,000 folds) by Echo550, 2 multiple wells were set for each concentration, and a final concentration of DMSO was […].
1) An enzyme solution was prepared in 1×test buffer.
2) Ubiquitin Rhodamine 110 protein, CF (UB-Rho), was added into 1×determination buffer to prepare a substrate solution.
3) 10 μL of enzyme solution and 1×reaction buffer were transferred to a 384-well plate, and
4) incubated at room temperature for 15 minutes.
5) 10 μL of substrate solution was added into each well to start the reaction, centrifuged for 30 seconds, and shaken for 30 seconds.
1) Plate reading was carried out on SpectraMax Paradigm for 30 minutes, with an excitation wavelength of 480 nm and an emission wavelength of 540 nm.
2) Data on SpectraMax Paradigm were collected.
An inhibition (% inh) was calculated by the following formula:
[formula] • wherein, Max represented: a luminous signal intensity of a positive control well without adding the compound; • Min represented: a luminous signal intensity of a negative control well without adding the enzyme; and • Signal represented: a luminous signal intensity of the compound of the test sample.
IC50 was Calculated by the Following Formula:
[formula] • wherein, Y represented: % inhibition; and • X represented: the concentration of the compound.

For another series, the system named is MDA-MB-436 cells. Nature of the series: First in-vitro cytological inhibitory activity experiment (CelltiterGlo assay). In kind it is cell-based, human. Conditions: Experimental Example 2, 4,000 cells/well, 7 days, read-out: In-vitro cytological activities, IC50, MDA-MB-436. As to the method: Experimental Example 2 First Experiment of in-vitro Cytological Inhibitory Activities of Compounds of the Present Disclosure
A cell line used in the following experiment was as follows: MDA-MB-436: human breast cancer cells.
Experimental method (CelltiterGlo assay)
All cells were adherent cells, the medium was DMEM+10% FBS+1% ITS-G+16 μg/ml glutathione, and the cells were tested in a logarithmic growth phase.
Cells in the logarithmic growth phase were collected and counted by a […]. The cell viability was detected by a trypan blue exclusion method, and the cell viability was kept over 90%. The cell concentration was adjusted to be in a proper range, and 90 μL of cell suspension was added into a 96-well plate respectively.
2.1 DMSO stock solutions of the test compounds were prepared, and concentrations of the stock solutions of the test compounds were 10 mM respectively.
The stock solutions of the test compounds were serially diluted from 10 mM with DMSO in a 3-fold gradient for a total of 8 concentrations. Then, 2 µL of DMSO-gradient diluted compounds were respectively added into 198 µL of culture solutions to give the working stock solutions of the test compounds (a compound concentration was 10-fold higher than the final concentration, and a maximum concentration was […]).
10 μL of compound working stock solution was added into each well in the 96-well plate inoculated with cells (10-fold dilution, a final DMSO concentration was 0.1%).
Solvent control: 0.1% DMSO. […]
A CTG reagent was thawed and the 96-well plate was equilibrated to room temperature for 30 minutes, 60 μL of reagent (Celititer Glo assay kit) was added into each well, shaking was carried out for 2 minutes with a shaker (in the absence of light), and the plate was incubated at room temperature for 20 minutes (in the absence of light). Light signal values were read on a multi-functional microplate reader.
1) inhibition (%)=(DMSO solvent control well reading−test compound well reading)/(DMSO solvent control well reading−blank control well reading)×100%; […]
A general note: Cellular ATP, detected with luciferase, serves as a proxy for viable cell number.

On the set-up of series [2]: species or system mice. Conditions: mouse, in vivo, iv, 5 mg/kg. The method, then: Experiment Example 4 Pharmacokinetic Experiment of Compounds of the Present Disclosure 1. Test compounds: the compounds in the examples of the present disclosure, prepared according to the examples in the specification of the present disclosure. [table] (1) Intravenous administration (iv): 2.54 mg of compound 11 was taken, added with 0.495 ml of DMSO solution to be dissolved by vortex and ultrasound, added with 0.495 ml of PEG400 to be mixed by vortex, and then added with 1.484 ml of 28% HP-β-CD to be mixed by vortex to obtain a clear solution, with a concentration of 1 mg/ml. (2) Oral administration (po): 3.33 mg of compound 11 was taken, added with 3.243 ml of solvent (2% HPC+0.1% Tween 80), and ground evenly to obtain a uniform suspension, with a concentration of 1 mg/ml. The test compounds were administered intravenously (iv), with an administration dosage of 5 mg/kg and an administration volume of 5 ml/kg. The test compounds were administered orally (po), with an administration dosage of 10 mg/kg and an administration volume of 10 ml/kg. […] LC-MS/MS was to be analyzed.

Sequence of Recombinant Human His6-USP1/His6-UAF1 Complex Protein (O94782 whole entry): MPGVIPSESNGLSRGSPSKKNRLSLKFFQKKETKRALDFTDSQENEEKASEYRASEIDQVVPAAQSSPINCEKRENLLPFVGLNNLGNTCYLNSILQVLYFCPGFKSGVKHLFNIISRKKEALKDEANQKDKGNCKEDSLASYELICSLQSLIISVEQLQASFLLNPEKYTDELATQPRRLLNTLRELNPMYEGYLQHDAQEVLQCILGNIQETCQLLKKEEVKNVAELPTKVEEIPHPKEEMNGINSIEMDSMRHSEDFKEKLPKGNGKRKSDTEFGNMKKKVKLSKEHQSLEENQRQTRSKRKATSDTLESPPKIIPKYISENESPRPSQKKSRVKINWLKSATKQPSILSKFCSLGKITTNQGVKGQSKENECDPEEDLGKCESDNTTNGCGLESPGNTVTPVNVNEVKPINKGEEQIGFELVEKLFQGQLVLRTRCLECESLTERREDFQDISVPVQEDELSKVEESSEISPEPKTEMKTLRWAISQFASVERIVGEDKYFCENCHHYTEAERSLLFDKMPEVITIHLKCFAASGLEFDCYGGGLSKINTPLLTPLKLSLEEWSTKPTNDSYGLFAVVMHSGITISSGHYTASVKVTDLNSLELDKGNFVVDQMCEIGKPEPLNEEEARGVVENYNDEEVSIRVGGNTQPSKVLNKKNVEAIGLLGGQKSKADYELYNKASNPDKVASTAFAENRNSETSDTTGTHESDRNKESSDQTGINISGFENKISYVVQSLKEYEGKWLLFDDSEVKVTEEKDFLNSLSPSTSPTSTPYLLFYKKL
Sequence of Recombinant Human His6-USP1/His6-UAF1 Complex Protein (Q8TAF3 whole entry partner): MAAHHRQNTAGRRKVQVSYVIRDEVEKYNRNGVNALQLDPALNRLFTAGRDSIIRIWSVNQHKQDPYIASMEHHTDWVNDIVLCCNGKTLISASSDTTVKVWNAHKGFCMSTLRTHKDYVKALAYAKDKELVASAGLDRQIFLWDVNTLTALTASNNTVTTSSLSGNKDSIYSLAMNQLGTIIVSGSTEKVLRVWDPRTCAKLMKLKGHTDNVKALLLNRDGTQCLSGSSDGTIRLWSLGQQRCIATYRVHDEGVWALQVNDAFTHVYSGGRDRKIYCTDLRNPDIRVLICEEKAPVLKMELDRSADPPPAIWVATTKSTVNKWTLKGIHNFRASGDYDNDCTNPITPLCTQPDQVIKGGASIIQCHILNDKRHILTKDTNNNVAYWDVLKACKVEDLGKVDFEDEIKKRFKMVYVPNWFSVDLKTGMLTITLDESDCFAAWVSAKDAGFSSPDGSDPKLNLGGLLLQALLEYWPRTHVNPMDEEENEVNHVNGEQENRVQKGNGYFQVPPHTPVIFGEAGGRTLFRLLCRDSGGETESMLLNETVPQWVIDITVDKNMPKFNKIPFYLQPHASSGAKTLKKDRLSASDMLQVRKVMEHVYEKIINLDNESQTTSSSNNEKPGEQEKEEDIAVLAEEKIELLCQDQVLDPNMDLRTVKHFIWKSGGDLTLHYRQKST

The IC50 is the point on the concentration scale where inhibition reaches its midpoint. On to `COc1ncnc(C2CC2)c1-c1nc2c3c(nn(Cc4ccc(-c5nc(C(F)(F)F)cn5C)cc4)c3n1)CCCC2` [Compound 11, 4-(4-cyclopropyl-6-methoxypyrimidine-5-yl)-2-(4-(1-methyl-4-(trifluoromethyl)-1H-imidazol-2-yl)benzyl)-6,7,8,9-tetrahydro-2H-1,2,3,5-tetraazabenzo[cd]pyrene], for which the results for the IC50 (in series [1]; in the series with MDA-MB-436 cells) were 22 nM and 101 nM, respectively. Further, the exposure entry in series [2] is reported as “more than 6,000 h*ng/ml”.
